Measurements published in PubChem BioAssay (NCI).
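Five concentrations, 48 hours, 96-well plates. TGI is the concentration that stops growth completely.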

Tests used:
Assay in all cases: growth of human tumour cells (NCI), 48 h
786-0 renal = test system: 786-0 renal
A498 renal = test system: A498 renal
A549 NSCLC = test system: A549 NSCLC
ACHN renal = test system: ACHN renal
BT-549 breast = test system: BT-549 breast
CAKI-1 renal = test system: CAKI-1 renal
CCRF-CEM leukemia = test system: CCRF-CEM leukemia
COLO 205 colon = test system: COLO 205 colon
DU-145 prostate = test system: DU-145 prostate
EKVX NSCLC = test system: EKVX NSCLC
HCC-2998 colon = test system: HCC-2998 colon
HCT-116 colon = test system: HCT-116 colon
HCT-15 colon = test system: HCT-15 colon
HOP-62 NSCLC = test system: HOP-62 NSCLC
HOP-92 NSCLC = test system: HOP-92 NSCLC
HS 578T breast = test system: HS 578T breast
HT29 colon = test system: HT29 colon
IGROV1 ovarian = test system: IGROV1 ovarian
K-562 leukemia = test system: K-562 leukemia
KM12 colon = test system: KM12 colon
LOX IMVI melanoma = test system: LOX IMVI melanoma
M14 melanoma = test system: M14 melanoma
MALME-3M melanoma = test system: MALME-3M melanoma
MCF7 breast = test system: MCF7 breast
MDA-MB-231 breast = test system: MDA-MB-231 breast
MDA-MB-435 = test system: MDA-MB-435
MDA-N = test system: MDA-N
MOLT-4 leukemia = test system: MOLT-4 leukemia
NCI-H23 lung = test system: NCI-H23 lung
NCI-H460 lung = test system: NCI-H460 lung
NCI-H522 lung = test system: NCI-H522 lung
NCI/ADR-RES ovarian = test system: NCI/ADR-RES ovarian
OVCAR-3 ovarian = test system: OVCAR-3 ovarian
OVCAR-4 ovarian = test system: OVCAR-4 ovarian
OVCAR-5 ovarian = test system: OVCAR-5 ovarian
OVCAR-8 ovarian = test system: OVCAR-8 ovarian
PC-3 prostate = test system: PC-3 prostate
RPMI-8226 leukemia = test system: RPMI-8226 leukemia
RXF 393 renal = test system: RXF 393 renal
SF-268 CNS = test system: SF-268 CNS
SF-295 CNS = test system: SF-295 CNS
SF-539 CNS = test system: SF-539 CNS
SK-MEL-2 melanoma = test system: SK-MEL-2 melanoma
SK-MEL-28 melanoma = test system: SK-MEL-28 melanoma
SK-MEL-5 melanoma = test system: SK-MEL-5 melanoma
SK-OV-3 ovarian = test system: SK-OV-3 ovarian
SN12C renal = test system: SN12C renal
SNB-19 CNS = test system: SNB-19 CNS
SNB-75 CNS = test system: SNB-75 CNS
SR leukemia = test system: SR leukemia
SW-620 colon = test system: SW-620 colon
TK-10 renal = test system: TK-10 renal
U251 CNS = test system: U251 CNS
UACC-257 melanoma = test system: UACC-257 melanoma
UACC-62 melanoma = test system: UACC-62 melanoma
UO-31 renal = test system: UO-31 renal

CN1C(=O)c2c(c3c4ccccc4n(C4OC(CO)C(O)C(O)C4O)c3c3[nH]c4ccccc4c23)C1=O (stereo unspecified) showed a TGI (786-0 renal) of 7.31 µM, a TGI (A498 renal) of 3.26 µM and a TGI (A549 NSCLC) of 29.6 µM. It also gave a TGI (ACHN renal) of 6.45 µM, a TGI (BT-549 breast) of 33.8 µM and a TGI (CAKI-1 renal) of 5.3 µM. The TGI (CCRF-CEM leukemia) was 1.68 µM, the TGI (COLO 205 colon) was 6.79 µM and the TGI (DU-145 prostate) was 9.66 µM. It also gave a TGI (EKVX NSCLC) of 9.09 µM, a TGI (HCC-2998 colon) of 7.72 µM and a TGI (HCT-116 colon) of 2.88 µM. It also gave a TGI (HCT-15 colon) of 17.4 µM, a TGI (HOP-62 NSCLC) of 9.51 µM and a TGI (HOP-92 NSCLC) of 5.86 µM. It also gave a TGI (HS 578T breast) of 21.6 µM, a TGI (HT29 colon) of 9.52 µM and a TGI (IGROV1 ovarian) of 4.1 µM. For the same molecule, the TGI (K-562 leukemia) was > 100 µM, the TGI (KM12 colon) was 11.3 µM and the TGI (LOX IMVI melanoma) was 5.49 µM. For the same molecule, the TGI (M14 melanoma) was 6.13 µM, the TGI (MALME-3M melanoma) was 1.44 µM and the TGI (MCF7 breast) was 18.7 µM. It also gave a TGI (MDA-MB-231 breast) of 5.33 µM, a TGI (MDA-MB-435) of 6.95 µM and a TGI (MDA-N) of 7.24 µM. The TGI (MOLT-4 leukemia) was 3.57 µM, the TGI (NCI-H23 lung) was 9.6 µM and the TGI (NCI-H460 lung) was 12.1 µM. It also gave a TGI (NCI-H522 lung) of 1.66 µM, a TGI (NCI/ADR-RES ovarian) of 49.9 µM and a TGI (OVCAR-3 ovarian) of 5.37 µM. The TGI (OVCAR-4 ovarian) was 6.36 µM, the TGI (OVCAR-5 ovarian) was 6.67 µM and the TGI (OVCAR-8 ovarian) was 4.19 µM. It also gave a TGI (PC-3 prostate) of 9.62 µM, a TGI (RPMI-8226 leukemia) of 59.8 µM and a TGI (RXF 393 renal) of 8.96 µM. For the same molecule, the TGI (SF-268 CNS) was 4.85 µM, the TGI (SF-295 CNS) was 10.9 µM and the TGI (SF-539 CNS) was 4.7 µM. It also gave a TGI (SK-MEL-2 melanoma) of 4.72 µM, a TGI (SK-MEL-28 melanoma) of 8.43 µM and a TGI (SK-MEL-5 melanoma) of 3.29 µM. It also gave a TGI (SK-OV-3 ovarian) of 10.9 µM, a TGI (SN12C renal) of 9.71 µM and a TGI (SNB-19 CNS) of 8.42 µM. For the same molecule, the TGI (SNB-75 CNS) was 15.9 µM, the TGI (SR leukemia) was 1.2 µM and the TGI (SW-620 colon) was 16.2 µM. For the same molecule, the TGI (TK-10 renal) was 13.7 µM, the TGI (U251 CNS) was 10.8 µM and the TGI (UACC-257 melanoma) was 7.36 µM. The TGI (UACC-62 melanoma) was 4.09 µM and the TGI (UO-31 renal) was 6.6 µM.
